17 molecules from article PMC8071274 (International Journal of Molecular Sciences, 2021) can be followed below.

Where a SMILES comes first, the peptide text is derived from it. The star is where a group is joined. For = O=C*

The assay relates to differentiated HL-60 cells. In kind it is cell-based, human. The conditions noted are these: 72 h. The protocol: HEK-293 cells (American Type Culture Collection, Manassas, VA, USA) were maintained in DMEM (Thermo Fisher Scientific, Waltham, MA, USA) containing 10% FBS (Thermo Fisher Scientific) in a humidified atmosphere at 5% CO2 and 37 °C. Human acute leukemia-derived HL-60 cells (RIKEN Cell Bank, Ibaraki, Japan) were cultured in RPMI-1640 medium (Thermo Fisher Scientific) containing 10% FBS in a humidified atmosphere at 5% CO2 and 37 °C. HL-60 cells were treated with 500 μM dibutyryl-cAMP (Sigma-Aldrich, St. Louis, MO, USA) for 72 h to differentiate the cells into neutrophilic/granulocytic cells as described elsewhere. The ability of MCT-2-related peptides to activate HL-60 cells differentiated into neutrophilic/granulocytic cells was evaluated by stimulation of β-hexosaminidase secretion from the cells. Briefly, differentiated HL-60 cells were washed 3 times with ice-cold HEPES-buffered Hank’s solution (HBHS; 10 mM HEPES, 136.9 mM NaCl, 5.4 mM KCl, 1.2 mM CaCl2, 0.44 mM KH2PO4, 0.49 mM MgCl2, 0.41 mM MgSO4, 0.34 mM Na2HPO4, 5.5 mM glucose, 4.2 mM NaHCO3, and 0.1% BSA, pH 7.4). The cells were resuspended in HBHS at a density of 5.6 × 10^6 cells/mL, and DNase I (Sigma-Aldrich) and cytochalasin B (Sigma-Aldrich) were each added at a final concentration of 5 μg/mL. The cell suspension in each tube (5.0 × 10^5 cells/90 μL) was preincubated at 37 °C for 10 min and stimulated with 10 μL synthetic peptide solution at 37 °C for 10 min. The inhibitory effects of inhibitors against FPR1 [CysH (Sigma-Aldrich)] and FPR2 [PBP10 (Tocris Bioscience, Bristol, UK)] on β-hexosaminidase release induced by MCT-2 and its derivatives were also evaluated in the differentiated HL-60 cells; each cell suspension prepared as above (90 μL) was transferred to a tube (5.0 × 10^5 cells/tube) with 5 μL inhibitor solution for FPR1 (CysH) or FPR2 (PBP10). Each tube was then preincubated at 37 °C for 10 min and stimulated with 5 μL synthetic peptide solution at 37 °C for 10 min. After stimulation, 200 μL ice-cold reaction quenching buffer (25 mM Tris, 123 mM NaCl, and 2.7 mM KCl, pH 7.4) was added to each cell suspension to stop the reaction. Thereafter, these tubes were centrifuged at 4 °C and 2300× g for 1 min, and each supernatant was transferred into a new tube. β-Hexosaminidase activity in the supernatant was measured as described previously. Briefly, 90 μL supernatant was transferred to each well of a 96-well microtiter plate, and 60 μL of a substrate solution for β-hexosaminidase [10 mM p-nitrophenyl N-acetyl-β-D-glucosaminide (Sigma-Aldrich), 40 mM citrate, and 70 mM NaHPO4, pH 4.5] was added to initiate the enzyme reaction. After incubation of the plate at 37 °C for 1 h, 100 μL of 400 mM glycine (pH 10.7) was added to stop the reaction. The absorbance at 415 nm for the resulting p-nitrophenol and at 490 nm for the reference was measured using a microtiter plate reader (Viento XS; BioTek Instruments, Winooski, VT, USA). The ability of each peptide to induce β-hexosaminidase release was expressed as a percentage of enzyme secretion promoted by 10 μM MCT-2(1–15) that induced the maximum response for the elucidation of full or partial agonists to the activity of MCT-2(1–15) (Figure 2 and Figure 4, Table 2) or a percentage of the total enzyme activity, which was the enzyme activity released after disruption of the cells with 0.05% Triton X-100 (Figure 3).
`CSCC[C@H](NC=O)C(=O)N[C@H](C(=O)N1CCC[C@H]1C(=O)N[C@@H](CCSC)C(=O)N[C@@H](CCCNC(=N)N)C(=O)O)[C@@H](C)O` [MCT-2(1–5)] (For-MTPMR-OH) displayed an EC50 of 26000 nM.

`CSCC[C@H](NC=O)C(=O)N[C@H](C(=O)N1CCC[C@H]1C(=O)N[C@@H](CCSC)C(=O)N[C@@H](CCCNC(=N)N)C(=O)N[C@@H](CCCCN)C(=O)O)[C@@H](C)O` [MCT-2(1–6)] (For-MTPMRK-OH) returned an EC50 of 203000 nM.

The molecule `CC[C@H](C)[C@H](NC(=O)[C@H](CCCCN)NC(=O)[C@H](CCCNC(=N)N)NC(=O)[C@H](CCSC)NC(=O)[C@@H]1CCCN1C(=O)[C@@H](NC(=O)[C@H](CCSC)NC=O)[C@@H](C)O)C(=O)O` [MCT-2(1–7)] (For-MTPMRKI-OH) came in with an EC50 of 35500 nM.

`CC[C@H](C)[C@H](NC(=O)[C@H](CCCCN)NC(=O)[C@H](CCCNC(=N)N)NC(=O)[C@H](CCSC)NC(=O)[C@@H]1CCCN1C(=O)[C@@H](NC(=O)[C@H](CCSC)NC=O)[C@@H](C)O)C(=O)N[C@@H](CC(N)=O)C(=O)O` [MCT-2(1–8)] (For-MTPMRKIN-OH) registered an EC50 of 41300 nM.

In turn, `CC[C@H](C)[C@H](NC(=O)[C@H](CCCCN)NC(=O)[C@H](CCCNC(=N)N)NC(=O)[C@H](CCSC)NC(=O)[C@@H]1CCCN1C(=O)[C@@H](NC(=O)[C@H](CCSC)NC=O)[C@@H](C)O)C(=O)N[C@@H](CC(N)=O)C(=O)N1CCC[C@H]1C(=O)O` [MCT-2(1–9)] (For-MTPMRKINP-OH) had an EC50 of 10800 nM.

`CC[C@H](C)[C@H](NC(=O)[C@H](CCCCN)NC(=O)[C@H](CCCNC(=N)N)NC(=O)[C@H](CCSC)NC(=O)[C@@H]1CCCN1C(=O)[C@@H](NC(=O)[C@H](CCSC)NC=O)[C@@H](C)O)C(=O)N[C@@H](CC(N)=O)C(=O)N1CCC[C@H]1C(=O)N[C@@H](CC(C)C)C(=O)N[C@@H](CCSC)C(=O)N[C@@H](CCCCN)C(=O)O` [MCT-2(1–12)] (For-MTPMRKINPLMK-OH) gave a 50% effective concentration (EC50) of 633 ± 153 nM.

Take `CC[C@H](C)[C@H](NC(=O)[C@H](CCCCN)NC(=O)[C@H](CCCNC(=N)N)NC(=O)[C@H](CCSC)NC(=O)[C@@H]1CCCN1C(=O)[C@@H](NC(=O)[C@H](CCSC)NC=O)[C@@H](C)O)C(=O)N[C@@H](CC(N)=O)C(=O)N1CCC[C@H]1C(=O)N[C@@H](CC(C)C)C(=O)N[C@@H](CCSC)C(=O)N[C@@H](CCCCN)C(=O)N[C@@H](CC(C)C)C(=O)O` [MCT-2(1–13)] (For-MTPMRKINPLMKL-OH): the EC50 came out at 186 ± 33.6 nM.

As to `CC[C@H](C)[C@H](NC(=O)[C@H](CC(C)C)NC(=O)[C@H](CCCCN)NC(=O)[C@H](CCSC)NC(=O)[C@H](CC(C)C)NC(=O)[C@@H]1CCCN1C(=O)[C@H](CC(N)=O)NC(=O)[C@@H](NC(=O)[C@H](CCCCN)NC(=O)[C@H](CCCNC(=N)N)NC(=O)[C@H](CCSC)NC(=O)[C@@H]1CCCN1C(=O)[C@@H](NC(=O)[C@H](CCSC)NC=O)[C@@H](C)O)[C@@H](C)CC)C(=O)O` [MCT-2(1–14)] (For-MTPMRKINPLMKLI-OH), the concentration for a half-maximal effect (EC50) was found to be 96.7 ± 17.6 nM.

Turning to `CC[C@H](C)[C@H](NC(=O)[C@H](CC(C)C)NC(=O)[C@H](CCCCN)NC(=O)[C@H](CCSC)NC(=O)[C@H](CC(C)C)NC(=O)[C@@H]1CCCN1C(=O)[C@H](CC(N)=O)NC(=O)[C@@H](NC(=O)[C@H](CCCCN)NC(=O)[C@H](CCCNC(=N)N)NC(=O)[C@H](CCSC)NC(=O)[C@@H]1CCCN1C(=O)[C@@H](NC(=O)[C@H](C)NC=O)[C@@H](C)O)[C@@H](C)CC)C(=O)N[C@@H](CC(N)=O)C(=O)O` [[Ala^1]MCT-2] (For-ATPMRKINPLMKLIN-OH), the EC50 is greater than 10000 nM.

Regarding `CC[C@H](C)[C@H](NC(=O)[C@H](CC(C)C)NC(=O)[C@H](CCCCN)NC(=O)[C@H](CCSC)NC(=O)[C@H](CC(C)C)NC(=O)[C@@H]1CCCN1C(=O)[C@H](CC(N)=O)NC(=O)[C@@H](NC(=O)[C@H](CCCCN)NC(=O)[C@H](CCCNC(=N)N)NC(=O)[C@H](CCSC)NC(=O)[C@@H]1CCCN1C(=O)[C@H](C)NC(=O)[C@H](CCSC)NC=O)[C@@H](C)CC)C(=O)N[C@@H](CC(N)=O)C(=O)O` [[Ala^2]MCT-2] (For-MAPMRKINPLMKLIN-OH), the EC50 was found to be 0.61 ± 0.07 nM.

In turn, `CC[C@H](C)[C@H](NC(=O)[C@H](CC(C)C)NC(=O)[C@H](CCCCN)NC(=O)[C@H](CCSC)NC(=O)[C@H](CC(C)C)NC(=O)[C@@H]1CCCN1C(=O)[C@H](CC(N)=O)NC(=O)[C@@H](NC(=O)[C@H](CCCCN)NC(=O)[C@H](CCCNC(=N)N)NC(=O)[C@H](CCSC)NC(=O)[C@H](C)NC(=O)[C@@H](NC(=O)[C@H](CCSC)NC=O)[C@@H](C)O)[C@@H](C)CC)C(=O)N[C@@H](CC(N)=O)C(=O)O` [[Ala^3]MCT-2] (For-MTAMRKINPLMKLIN-OH) showed an EC50 of 16.3 ± 0.29 nM.

Take `CC[C@H](C)[C@H](NC(=O)[C@H](CC(C)C)NC(=O)[C@H](CCCCN)NC(=O)[C@H](CCSC)NC(=O)[C@H](CC(C)C)NC(=O)[C@@H]1CCCN1C(=O)[C@H](CC(N)=O)NC(=O)[C@@H](NC(=O)[C@H](CCCCN)NC(=O)[C@H](CCCNC(=N)N)NC(=O)[C@H](C)NC(=O)[C@@H]1CCCN1C(=O)[C@@H](NC(=O)[C@H](CCSC)NC=O)[C@@H](C)O)[C@@H](C)CC)C(=O)N[C@@H](CC(N)=O)C(=O)O` [[Ala^4]MCT-2] (For-MTPARKINPLMKLIN-OH): the 50% effective concentration (EC50) stood at 68 ± 2.65 nM.

As for `CC[C@H](C)[C@H](NC(=O)[C@H](CC(C)C)NC(=O)[C@H](CCCCN)NC(=O)[C@H](CCSC)NC(=O)[C@H](CC(C)C)NC(=O)[C@@H]1CCCN1C(=O)[C@H](CC(N)=O)NC(=O)[C@@H](NC(=O)[C@H](CCCCN)NC(=O)[C@H](C)NC(=O)[C@H](CCSC)NC(=O)[C@@H]1CCCN1C(=O)[C@@H](NC(=O)[C@H](CCSC)NC=O)[C@@H](C)O)[C@@H](C)CC)C(=O)N[C@@H](CC(N)=O)C(=O)O` [[Ala^5]MCT-2] (For-MTPMAKINPLMKLIN-OH), the EC50 was determined as 61.3 ± 0.58 nM.

Regarding `CC[C@H](C)[C@H](NC(=O)[C@H](C)NC(=O)[C@H](CCCNC(=N)N)NC(=O)[C@H](CCSC)NC(=O)[C@@H]1CCCN1C(=O)[C@@H](NC(=O)[C@H](CCSC)NC=O)[C@@H](C)O)C(=O)N[C@@H](CC(N)=O)C(=O)N1CCC[C@H]1C(=O)N[C@@H](CC(C)C)C(=O)N[C@@H](CCSC)C(=O)N[C@@H](CCCCN)C(=O)N[C@@H](CC(C)C)C(=O)N[C@H](C(=O)N[C@@H](CC(N)=O)C(=O)O)[C@@H](C)CC` [[Ala^6]MCT-2] (For-MTPMRAINPLMKLIN-OH), it took 64 ± 3 nM to reach a half-maximal effect (EC50).

In turn, `CC[C@H](C)[C@H](NC(=O)[C@H](CC(C)C)NC(=O)[C@H](CCCCN)NC(=O)[C@H](CCSC)NC(=O)[C@H](CC(C)C)NC(=O)[C@@H]1CCCN1C(=O)[C@H](CC(N)=O)NC(=O)[C@H](C)NC(=O)[C@H](CCCCN)NC(=O)[C@H](CCCNC(=N)N)NC(=O)[C@H](CCSC)NC(=O)[C@@H]1CCCN1C(=O)[C@@H](NC(=O)[C@H](CCSC)NC=O)[C@@H](C)O)C(=O)N[C@@H](CC(N)=O)C(=O)O` [[Ala^7]MCT-2] (For-MTPMRKANPLMKLIN-OH) came in with an EC50 of 94.7 ± 3.21 nM.

For the molecule `CC[C@H](C)[C@H](NC(=O)[C@H](CCCCN)NC(=O)[C@H](CCCNC(=N)N)NC(=O)[C@H](CCSC)NC(=O)[C@@H]1CCCN1C(=O)[C@@H](NC(=O)[C@H](CCSC)NC=O)[C@@H](C)O)C(=O)N[C@@H](C)C(=O)N1CCC[C@H]1C(=O)N[C@@H](CC(C)C)C(=O)N[C@@H](CCSC)C(=O)N[C@@H](CCCCN)C(=O)N[C@@H](CC(C)C)C(=O)N[C@H](C(=O)N[C@@H](CC(N)=O)C(=O)O)[C@@H](C)CC` [[Ala^8]MCT-2] (For-MTPMRKIAPLMKLIN-OH), the EC50 is 31 ± 3.97 nM.

For `CC[C@H](C)[C@H](NC(=O)[C@H](CC(C)C)NC(=O)[C@H](CCCCN)NC(=O)[C@H](CCSC)NC(=O)[C@H](C)NC(=O)[C@@H]1CCCN1C(=O)[C@H](CC(N)=O)NC(=O)[C@@H](NC(=O)[C@H](CCCCN)NC(=O)[C@H](CCCNC(=N)N)NC(=O)[C@H](CCSC)NC(=O)[C@@H]1CCCN1C(=O)[C@@H](NC(=O)[C@H](CCSC)NC=O)[C@@H](C)O)[C@@H](C)CC)C(=O)N[C@@H](CC(N)=O)C(=O)O` [[Ala^10]MCT-2] (For-MTPMRKINPAMKLIN-OH), the EC50 was found to be 73 ± 13.3 nM.

As a reminder, the EC50 is the concentration needed to bring the measured effect to its halfway point. Read a low EC50 as a more potent agent.
